In PMC8998355, “Diversity-Oriented Synthesis Catalyzed by Diethylaminosulfur-Trifluoride—Preparation of New Antitumor Ecdysteroid Derivatives” (International Journal of Molecular Sciences, 2022):

How the values were obtained:
[1] = MTT cytotoxicity assay (24 h); format: cell-based; conditions: human, MRC-5 human embryonal lung fibroblasts; MRC-5, 24 h MTT, n = 3; read-out: Cytotoxicity (IC50 ± SD)
Experimental: (§1) To assess the compounds’ effect on cell growth and viability, we used two different experimental setups of MTT assay. This allowed a comparative evaluation of results obtained from a short-term (24 h) treatment of a relatively higher number (10,000) of cells and those from a long-term (72 h) treatment of a lower cell number (6000), which makes it possible to gain some insight into the cytotoxic vs. cytostatic properties of the compounds. Even though MTT assay is an endpoint detection method, i.e., it provides a single readout of viable cells at the end of the experiment, such a comparison offers a reliable tool to identify antiproliferative activity of compounds that are not cytotoxic.
(§2) MRC-5 human embryonal lung fibroblasts (CCL-171, ATCC) were acquired from Sigma-Aldrich (Merck, KGaA, Darmstadt, Germany), and were cultured in EMEM medium containing 4.5 g/L glucose and supplemented with a non-essential amino acid mixture, a selection of vitamins, and 10% of FBS.
(§3) The adherent human fibroblast cells were seeded in 100 μL of EMEM medium overnight before each assay. Two-fold serial dilutions of the compounds (0.19–100 µM) were prepared in separate plates, then transferred to the plates containing the adherent cell lines.
(§4) The culture plates were further incubated at 37 °C for 24 h (cytotoxicity assay) or 72 h (antiproliferative assay); at the end of the incubation period, 20 μL of MTT solution (from a 5 mg/mL stock) was added to each well. After incubation at 37 °C for 4 h, 100 μL of SDS solution (10% in 0.01 M HCI) was added to each well and the plates were further incubated at 37 °C overnight. The cell growth was determined by measuring the optical density at 540 nm (ref. 630 nm) with a Multiscan EX ELISA reader (Thermo Labsystems, Cheshire, WA, USA). IC50 values were calculated by variable slope nonlinear regression using the log(inhibitor) vs. normalized response of GraphPad Prism 5.01 (GraphPad Software Inc., San Diego, CA, USA).

[2] = tested on: L5178Y mouse T-cell lymphoma cells; test: MTT cytotoxicity assay (24 h, 1 × 10^4 cells); format: cell-based; conditions: 24 h MTT, n = 3, read-out: Cytotoxicity (IC50 ± SD)
Experimental: as §1
(§5) L5178Y mouse T-cell lymphoma cells (ECACC Cat. No. 87111908) were obtained from FDA, Silver Spring, MD, USA. These were transfected with pHa MDR1/A retrovirus as described previously. ABCB1-expressing L5178YMDR cells were selected by culturing the infected cells with colchicine. The cell lines were cultured in McCoy’s 5A medium supplemented with 10% heat inactivated horse serum, 2 mM L-glutamine, and penicillin–streptomycin mixture.
(§6) MTT assay was performed in 96-well flat-bottomed microtiter plates as described before. Briefly, a 10 mM concentration stock solution in DMSO was prepared for each compound. These were diluted in 100 μL of McCoy’s 5A medium. Subsequently, 1 × 10^4 (cytotoxicity assay) or 6 × 10^3 (antiproliferative assay) T-cell mouse lymphoma cells in 100 μL of medium were added to each well, except for the medium control wells.
as §4

[3] = tested on: L5178YMDR cells (ABCB1-expressing); test: MTT cytotoxicity assay (24 h, 1 × 10^4 cells); format: cell-based; conditions: Mus musculus, 24 h MTT, n = 3, read-out: Cytotoxicity (IC50 ± SD)
Experimental: as §1, §5, §6, §4

[4] = biological target: T1, ABCB1 (Homo sapiens, UniProt P08183); test: ABCB1 inhibition assay (rhodamine 123 accumulation, flow cytometry); format: cell-based; conditions: human, probe rhodamine 123 (5.2 µM); for inhibition at 20 min, 2 µM / inhibition at 20 min, 20 µM: n = 1
T1 construct: expressed in transfected cells; host or cells: L5178Y mouse T-cell lymphoma cells transfected with pHa MDR1/A retrovirus, selected with colchicine (L5178YMDR)
Experimental: ABCB1 inhibition was determined by the intracellular accumulation of rhodamin 123 as reported before. Briefly, 2 × 10^6 cells/mL of L5178Y and L5178YMDR cell lines were re-suspended in serum-free McCoy’s 5A medium and distributed in 0.5 mL aliquots into Eppendorf centrifuge tubes. The compounds were added at a final concentration of 2 or 20 μM and the samples were incubated for 10 min at room temperature. Tariquidar was used as positive control and DMSO as negative control; for the latter, no activity was observed. Subsequently, 10 μL (5.2 μM final concentration) of the ABCB1 substrate fluorescent dye rhodamine 123 was added and the cells were incubated further for 20 min at 37 °C, washed twice and re-suspended in 1 mL PBS for analysis. Fluorescence of the cell population was measured with a PartecCyFlow® flow cytometer (Partec, Münster, Germany). Mean fluorescence intensity percentage was calculated for the treated vs. untreated L5178YMDR cells. Inhibition percentage for the treated cells was calculated from the corresponding values of the untreated L5178Y and L5178YMDR cells, representing 100% and 0% inhibition, respectively.

[5] = tested on: L5178Y mouse T-cell lymphoma cells; test: MTT antiproliferative assay (72 h, 6 × 10^3 cells); format: cell-based; conditions: Mus musculus; L5178Y, 72 h MTT, n = 3; read-out: Antiproliferative Effect (IC50 ± SD)
Experimental: as §1, §5, §6, §4

[6] = tested on: L5178YMDR cells (ABCB1-expressing); test: MTT antiproliferative assay (72 h, 6 × 10^3 cells); format: cell-based; conditions: Mus musculus, 72 h MTT, n = 3, read-out: Antiproliferative Effect (IC50 ± SD)
Experimental: as §1, §5, §6, §4

[7] = tested on: MRC-5 human embryonal lung fibroblasts; test: MTT antiproliferative assay (72 h); format: cell-based; conditions: Homo sapiens, MRC5; MRC-5, 72 h MTT, n = 3; read-out: Antiproliferative Effect (IC50 ± SD)
Experimental: as §1, §2, §3, §4

[8] = tested on: L5178YMDR cells; test: Combination assay with doxorubicin (checkerboard microplate method, MTT); format: cell-based, mouse; parameters: Dm (antilog of the x-intercept of the median-effect plot): unit not given here; conditions: for CIavg (weighted average CI): (CI50 + 2CI75 + 3CI90)/6
Experimental: Compounds 7, 10, 11, 13, and 14 had sufficient individual antiproliferative properties for their assessment of chemo-sensitizing activity. This was carried out as an antiproliferative assay on L5178YMDR cells in combination with doxorubicin, arranged according to the checkerboard microplate method.
The checkerboard microplate method was used to evaluate the compounds’ interaction with doxorubicin, as described before. Briefly, doxorubicin (2 mg/mL, Teva Pharmaceuticals, Budapest, Hungary) was serially diluted in the horizontal direction (100 µL per well), and the ecdysteroid was subsequently diluted in the vertical direction (50 µL per well). L5178YMDR cells were re-suspended in culture medium and added to each test well in 50 µL to contain 1 × 10^4 cells per well, and 50 µL of medium was added to the medium control wells. The plates were incubated for 72 h at 37 °C in a CO2 incubator and, at the end of the incubation period, the cell growth was determined by MTT assay as described above. Cell viability data were analyzed by the Calcusyn software using the Chou method, and drug interactions were expressed as combination index (CI) values, in which 0 < CI < 1, CI = 1, and CI > 1 refer to synergism, additivity, and antagonism, respectively.

[9] = L5178YMDR, rhodamine 123 accumulation
[10] = drug ratio 11.6:1, with doxorubicin
[11] = drug ratio 23.1:1, with doxorubicin
[12] = drug ratio 46.4:1, with doxorubicin
[13] = drug ratio 23.2:1, with doxorubicin
[14] = drug ratio 92.8:1, with doxorubicin
[15] = drug ratio 185.6:1, with doxorubicin

SMILES	IC50 at 24 h [1] [µM]	IC50 [2] [µM]	IC50 [3] [µM]	inhibition at 20 min, 2 µM [4, 9] [%]	inhibition at 20 min, 20 µM [4, 9] [%]	IC50 [5] [µM]	IC50 [6] [µM]	IC50 [7] [µM]	further results
CC(=O)[C@H]1CC[C@@]2(O)C3=CC(=O)[C@@H]4C[C@H]5OC(C)(C)O[C@H]5C[C@]4(C)[C@H]3[C@H](O)C[C@]12C [Compound 3]	> 100	> 100	> 100	-0.03	-0.35	75.5 ± 4.1	> 100	21.4 ± 0.2	
CC(=O)[C@H]1CC[C@@]2(O)C3=CC(=O)[C@@H]4C[C@H]5OC(C)(C)O[C@H]5C[C@]4(C)C3=CC[C@]12C [Compound 5]	> 100	> 100	> 100	0.2	-0.41	56.5 ± 6	80.2 ± 2.1	20.9 ± 3.6	
CC(=O)[C@H]1CC=C2C3=CC(=O)[C@@H]4C[C@H]5OC(C)(C)O[C@H]5C[C@]4(C)C3=CC[C@@]21C [Compound 6]	> 100	91.1 ± 6.8	> 100	-0.38	0.13	31.2 ± 3.9	54.1 ± 2.3	> 100	
CC(=O)[C@H]1CC[C@@]2(F)C3=CC(=O)[C@@H]4C[C@H]5OC(C)(C)O[C@H]5C[C@]4(C)C3=CC[C@]12C [Compound 7]	> 100	38.6 ± 1.6	57.5 ± 6.3	-0.24	0.29	15.2 ± 1.9	20 ± 2.4	> 100	CI at ED75 [8, 10]: 0.76; CI at ED90 [8, 10]: 0.59; Dm (antilog of the x-intercept of the median-effect plot) [8, 10]: 4.05; CIavg (weighted average CI) [8, 10]: 0.71; CI at ED75 [8, 11]: 1.26; CI at ED90 [8, 11]: 1.37; Dm (antilog of the x-intercept of the median-effect plot) [8, 11]: 7.83; CIavg (weighted average CI) [8, 11]: 1.30; CI at ED75 [8, 12]: 0.84; CI at ED90 [8, 12]: 0.60; Dm (antilog of the x-intercept of the median-effect plot) [8, 12]: 11.56; CIavg (weighted average CI) [8, 12]: 0.78
CC(=O)[C@H]1CC[C@@]2(O)C3=CC(=O)[C@@H]4C[C@H]5OC(C)(C)O[C@H]5C[C@]4(C)[C@H]3CC[C@]12C [Compound 9, poststerone 2,3-acetonide]	> 100	> 100	> 100	-0.4	-0.42	49.2 ± 3.4	85.2 ± 5.1	> 100	
CC(=O)[C@H]1CC=C2C3=CC(=O)[C@@H]4C[C@H]5OC(C)(C)O[C@H]5C[C@]4(C)[C@H]3CC[C@@]21C [Compound 10]	> 100	72.9 ± 5.6	83 ± 5	-0.38	-0.16	27.7 ± 0.6	42.3 ± 1.5	> 100	CI at ED75 [8, 13]: 0.50; CI at ED90 [8, 13]: 0.33; Dm (antilog of the x-intercept of the median-effect plot) [8, 13]: 6.50; CIavg (weighted average CI) [8, 13]: 0.46; CI at ED75 [8, 12]: 0.51; CI at ED90 [8, 12]: 0.30; Dm (antilog of the x-intercept of the median-effect plot) [8, 12]: 10.99; CIavg (weighted average CI) [8, 12]: 0.46; CI at ED75 [8, 14]: 0.55; CI at ED90 [8, 14]: 0.35; Dm (antilog of the x-intercept of the median-effect plot) [8, 14]: 14.02; CIavg (weighted average CI) [8, 14]: 0.50; CI at ED75 [8, 15]: 0.61; CI at ED90 [8, 15]: 0.36; Dm (antilog of the x-intercept of the median-effect plot) [8, 15]: 19.47; CIavg (weighted average CI) [8, 15]: 0.55
CC(=O)O[C@H]1C[C@@]2(C)C(=C(O)C(=O)C3=C2CC[C@@]2(C)C3=CC[C@@H]2[C@@]2(C)OC(C)(C)O[C@@H]2CCC(C)(C)O)C[C@H]1O [Compound 16, calonysterone 2-acetate 20,22-acetonide]	> 100	63 ± 4.4	78.7 ± 6.7	0.71	15.7	50.3 ± 0.2	40 ± 3.4	67.2 ± 14.6	
CC(=O)O[C@H]1C[C@]2(C)C3=CC[C@@]4(C)C(=CC[C@@H]4[C@@]4(C)OC(C)(C)O[C@@H]4CCC(C)(C)O)C3=C(O)C(=O)[C@@]23C[C@@H]13 [Compound 17]		27.2 ± 1	35.9 ± 0.6	1.08	45.5	20.3 ± 1	14.3 ± 0.5	5.9 ± 1.2	inhibition at 20 min ([4]; concentration not given, read-out: direct ABCB1 inhibition): ~50%
COc1cccc2c1C(=O)c1c(O)c3c(c(O)c1C2=O)C[C@@](O)(C(=O)CO)C[C@@H]3O[C@H]1C[C@H](N)[C@H](O)[C@H](C)O1 [Doxorubicin, reference compound]	1.7 ± 0.5	0.3 ± 0.1	8.1 ± 2.8			0.014 ± 0.002	0.71 ± 0.2		
COc1cc2c(cc1OC)CN(CCc1ccc(NC(=O)c3cc(OC)c(OC)cc3NC(=O)c3cnc4ccccc4c3)cc1)CC2 [tariquidar, reference compound]									inhibition at 20 min, 0.02 µM ([4]; 20 nM, L5178YMDR, rhodamine 123 accumulation, read-out: ABCB1 inhibition, positive control): 87.5%
